Measurements as given in patent US9334289B2, “Cephem compound having catechol or pseudo-catechol structure” (SHIONOGI & CO., LTD., priority 2011, dated 2016).
≈ marks a conversion by molar mass, not a printed value.

Experiments:
Assay in all cases: MIC, CLSI broth microdilution, Test Example 2
Assay type in all cases: cell-based
[1] = tested on: E. cloacae NCTC13464; conditions: CTX-M group 9 ESBL producing strain, cation-adjusted Iso-Sensitest broth containing human Apo-transferrin, 5×10^5 cfu/mL; for MIC: Enterobacter cloacae, NCTC13464, read-out: Minimum Inhibitory Concentration (MIC) E. cloacae NCTC 13464
Experimental: (§1) Measurement of Minimum Inhibitory Concentration (MIC: μg/mL) was conducted according to CLSI (Clinical and Laboratory Standards Institute) method, and the amount of bacteria for inoculation was 5×10^5 cfu/mL, and cation-adjusted Iso-Sensitest broth containing human Apo-transferrin was used as a test medium, and the experiment was conducted using broth microdilution method.

[2] = tested on: P. aeruginosa SR01332; conditions: VIM-11 MBL producing strain (carbapenem resistance strain), cation-adjusted Iso-Sensitest broth containing human Apo-transferrin, 5×10^5 cfu/mL; for MIC: Pseudomonas aeruginosa, SR01332, read-out: Minimum Inhibitory Concentration (MIC) P. aeruginosa SR01332
Experimental: as §1

[3] = tested on: E. coli ATCCBAA-200; conditions: SHV-4 ESBL producing strain, cation-adjusted Iso-Sensitest broth containing human Apo-transferrin, 5×10^5 cfu/mL; for MIC: Escherichia coli, ATCCBAA200, read-out: Minimum Inhibitory Concentration (MIC) E. coli ATCC BAA-200
Experimental: as §1

[4] = tested on: E. coli SR01337; conditions: TEM-1 ESBL producing strain, cation-adjusted Iso-Sensitest broth containing human Apo-transferrin, 5×10^5 cfu/mL; for MIC: Escherichia coli, SR01337, read-out: Minimum Inhibitory Concentration (MIC) E. coli SR01337
Experimental: as §1

[5] = tested on: E. coli ATCCBAA-196; conditions: TEM-10 ESBL producing strain, cation-adjusted Iso-Sensitest broth containing human Apo-transferrin, 5×10^5 cfu/mL; for MIC: Escherichia coli, ATCCBAA196, read-out: Minimum Inhibitory Concentration (MIC) E. coli ATCC BAA-196
Experimental: as §1

[6] = tested on: K. pneumoniae ATCC700603; conditions: SHV18 ESBL producing strain, cation-adjusted Iso-Sensitest broth containing human Apo-transferrin, 5×10^5 cfu/mL; for MIC: Klebsiella pneumoniae, ATCC700603, read-out: Minimum Inhibitory Concentration (MIC) K. pneumoniae ATCC 700603
Experimental: as §1

[7] = tested on: P. aeruginosa SR01335; conditions: VIM-1 like MBL producing strain (carbapenem resistance strain), cation-adjusted Iso-Sensitest broth containing human Apo-transferrin, 5×10^5 cfu/mL; for MIC: Pseudomonas aeruginosa, SR01335, read-out: Minimum Inhibitory Concentration (MIC) P. aeruginosa SR01335
Experimental: as §1

[8] = tested on: A. baumannii SR01331; conditions: PER-1, OXA-23.51 ESBL- & OXA-type carbapenemase producing strain, cation-adjusted Iso-Sensitest broth containing human Apo-transferrin, 5×10^5 cfu/mL; for MIC: Acinetobacter baumannii, SR01331, read-out: Minimum Inhibitory Concentration (MIC) A. baumannii SR01331
Experimental: as §1

Row | SMILES | MIC [1] [µg/mL] | MIC [2] [µg/mL] | MIC [3] [µg/mL] | MIC [4] [µg/mL] | MIC [5] [µg/mL] | MIC [6] [µg/mL] | MIC [7] [µg/mL] | MIC [8] [µg/mL] | Minimum Inhibitory Concentration (MIC) E. cloacae NCTC 13464 [1] [µg/mL] | Minimum Inhibitory Concentration (MIC) P. aeruginosa SR01332 [2] [µg/mL] | Minimum Inhibitory Concentration (MIC) E. coli ATCC BAA-200 [3] [µg/mL] | Minimum Inhibitory Concentration (MIC) E. coli SR01337 [4] [µg/mL] | Minimum Inhibitory Concentration (MIC) E. coli ATCC BAA-196 [5] [µg/mL] | Minimum Inhibitory Concentration (MIC) K. pneumoniae ATCC 700603 [6] [µg/mL] | Minimum Inhibitory Concentration (MIC) P. aeruginosa SR01335 [7] [µg/mL] | Minimum Inhibitory Concentration (MIC) A. baumannii SR01331 [8] [µg/mL]
1 | Nc1nc(/C(=N/O[C@@H](CC(=O)[O-])C(=O)[O-])C(=O)N[C@@H]2C(=O)N3C(c4nnn[n-]4)=C(C[N+]4(CCNC(=O)c5ccc(O)c(O)c5Cl)CCCCC4)CS[C@H]23)cs1.[Na+].[Na+] [Compound I-67] | 0.063 | 2 | 0.063 | ≤ 0.031 | ≤ 0.031 | ≤ 0.031 | 2 | 0.25 |  |  |  |  |  |  |  | 
2 | CC(C)(O/N=C(\C(=O)N[C@@H]1C(=O)N2C(c3nnn[n-]3)=C(C[N+]3(CCNC(=O)c4ccc(O)c(O)c4Cl)CCCCC3)CS[C@H]12)c1csc(N)n1)C(=O)[O-].[Na+] [Compound I-69] | 0.063 | 2 | 0.125 | ≤ 0.031 | 0.125 | 0.125 | 2 | 0.5 |  |  |  |  |  |  |  | 
3 | CC(C)(O/N=C(\C(=O)N[C@@H]1C(=O)N2C(c3nnn[n-]3)=C(C[N+]3(CCNC(=O)c4ccc(O)c(O)c4Cl)CCCC3)CS[C@H]12)c1csc(N)n1)C(=O)[O-].[Na+] [Compound I-82] | 0.125 | 4 | 0.25 | ≤ 0.031 | 0.125 | 0.125 | 1 | 0.5 |  |  |  |  |  |  |  | 
4 | Nc1nc(C(=NOC(CC(=O)[O-])C(=O)[O-])C(=O)NC2C(=O)N3C(c4nnn[n-]4)=C(C[N+]45CCC(CNC(=O)c6ccc(O)c(O)c6Cl)(CC4)CC5)CSC23)c(Cl)s1.[Na+].[Na+] (stereo not drawn) [Compound I-94] |  |  |  |  |  |  |  |  | 0.5 | 2 | 0.5 | 0.063 | 0.063 | 0.5 | 1 | 0.5
5 | C[N+]1(CC2=C(c3nnn[nH]3)N3C(=O)[C@@H](NC(=O)/C(=N\O[C@@H](CC(=O)O)C(=O)O)c4nc(N)sc4Cl)[C@H]3SC2)[C@@H]2CC[C@H]1C[C@@H](NC(=O)c1ccc(O)c(O)c1Cl)C2.[Na+].[Na+] (stereo partly drawn) [Compound I-96] | 0.5 | 4 | 1 | 0.125 | 0.25 | 1 | 2 | 0.25 |  |  |  |  |  |  |  | 
6 | Nc1nc(/C(=N/O[C@@H](CC(=O)O)C(=O)[O-])C(=O)N[C@@H]2C(=O)N3C(c4nnn[nH]4)=C(C[N@+]45CCC[C@H]4CN(C(=O)c4ccc(O)c(O)c4Cl)CC5)CS[C@H]23)c(Cl)s1 [Compound I-97] | 0.5 (≈ 0.586 µM) | 4 (≈ 4.69 µM) | 0.5 (≈ 0.586 µM) | 0.25 (≈ 0.293 µM) | 0.125 (≈ 0.147 µM) | 0.5 (≈ 0.586 µM) | 1 (≈ 1.17 µM) | 0.25 (≈ 0.293 µM) |  |  |  |  |  |  |  | 
7 | CC(C)(O/N=C(\C(=O)N[C@@H]1C(=O)N2C(c3nnn[nH]3)=C(C[N@+]34CCC[C@H]3CN(C(=O)c3ccc(O)c(O)c3Cl)CC4)CS[C@H]12)c1csc(N)n1)C(=O)[O-] [Compound I-98] | 0.125 (≈ 0.159 µM) | 8 (≈ 10.1 µM) | 0.5 (≈ 0.634 µM) | ≤ 0.031 | 0.25 (≈ 0.317 µM) | 0.25 (≈ 0.317 µM) | 2 (≈ 2.54 µM) | 1 (≈ 1.27 µM) |  |  |  |  |  |  |  | 
8 | Nc1nc(/C(=N/O[C@@H](CC(=O)O)C(=O)[O-])C(=O)N[C@@H]2C(=O)N3C(c4nnn[nH]4)=C(C[N+]4(CCNC(=O)c5cc(O)c(O)c(F)c5)CCCC4)CS[C@H]23)cs1 [Compound I-99] | 0.125 (≈ 0.158 µM) | 4 (≈ 5.06 µM) | 0.063 (≈ 0.0798 µM) | ≤ 0.031 | ≤ 0.031 | 0.063 (≈ 0.0798 µM) | 2 (≈ 2.53 µM) | 0.5 (≈ 0.633 µM) |  |  |  |  |  |  |  | 
9 | Nc1nc(/C(=N/O[C@@H](CC(=O)O)C(=O)[O-])C(=O)N[C@@H]2C(=O)N3C(c4nnn[nH]4)=C(C[N+]4(CCNC(=O)c5cc(O)c(O)c(F)c5)CCCC4)CS[C@H]23)c(Cl)s1 [Compound I-100] | 0.25 (≈ 0.303 µM) | 2 (≈ 2.43 µM) | 0.063 (≈ 0.0764 µM) | ≤ 0.031 | ≤ 0.031 | 0.125 (≈ 0.152 µM) | 2 (≈ 2.43 µM) | 0.25 (≈ 0.303 µM) |  |  |  |  |  |  |  | 
